This note sets out measurements from ChEMBL document CHEMBL3991601, “The target landscape of clinical kinase drugs” (Science, 2017).

The target in one experiment is Actin-related protein 2 (Homo sapiens, UniProt P61160).
Experiment [1] concerns the target Mitotic checkpoint serine/threonine-protein kinase BUB1 (Homo sapiens, UniProt O43683).
For experiment [2], the target named is Cyclin-dependent kinase 1 (Homo sapiens, UniProt P06493).
The target of experiment [3] is Cyclin-dependent kinase 7 (Homo sapiens, UniProt P50613).
The target in the next experiment is T1, Ephrin type-B receptor 6 (Homo sapiens, UniProt O15197).
T1 sequence (O15197 whole entry): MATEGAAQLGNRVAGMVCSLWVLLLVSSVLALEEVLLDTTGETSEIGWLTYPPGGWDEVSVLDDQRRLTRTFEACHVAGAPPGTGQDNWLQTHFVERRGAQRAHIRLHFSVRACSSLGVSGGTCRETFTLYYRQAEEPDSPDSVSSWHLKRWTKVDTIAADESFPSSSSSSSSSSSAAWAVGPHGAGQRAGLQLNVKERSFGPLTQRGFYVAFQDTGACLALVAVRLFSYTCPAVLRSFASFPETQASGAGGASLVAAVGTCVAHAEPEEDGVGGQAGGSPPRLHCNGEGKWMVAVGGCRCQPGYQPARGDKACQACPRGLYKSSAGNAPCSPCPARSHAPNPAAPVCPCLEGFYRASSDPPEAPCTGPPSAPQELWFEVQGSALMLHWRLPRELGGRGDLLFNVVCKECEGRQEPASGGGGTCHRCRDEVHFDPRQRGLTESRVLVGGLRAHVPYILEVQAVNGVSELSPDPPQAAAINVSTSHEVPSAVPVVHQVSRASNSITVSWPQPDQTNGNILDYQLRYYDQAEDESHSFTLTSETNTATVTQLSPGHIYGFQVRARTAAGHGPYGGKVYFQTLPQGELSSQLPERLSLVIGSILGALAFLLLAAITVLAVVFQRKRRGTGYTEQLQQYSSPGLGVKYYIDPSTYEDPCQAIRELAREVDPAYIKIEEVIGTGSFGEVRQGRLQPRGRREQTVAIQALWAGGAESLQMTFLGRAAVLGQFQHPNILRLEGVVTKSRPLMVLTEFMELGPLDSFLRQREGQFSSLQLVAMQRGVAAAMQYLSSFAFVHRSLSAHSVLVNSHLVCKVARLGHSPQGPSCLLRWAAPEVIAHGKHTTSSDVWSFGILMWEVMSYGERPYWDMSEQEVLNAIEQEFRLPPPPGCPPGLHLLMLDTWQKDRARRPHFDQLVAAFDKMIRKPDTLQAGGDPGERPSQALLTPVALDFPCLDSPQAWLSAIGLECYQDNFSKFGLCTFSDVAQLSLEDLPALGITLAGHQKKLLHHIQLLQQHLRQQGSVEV

Experiment [4] deals with Glycogen synthase kinase-3 alpha (Homo sapiens, UniProt P49840).
Experiment [5] deals with T2, Ras-related protein Rab-27A (Homo sapiens, UniProt P51159).
T2 sequence (P51159 whole entry): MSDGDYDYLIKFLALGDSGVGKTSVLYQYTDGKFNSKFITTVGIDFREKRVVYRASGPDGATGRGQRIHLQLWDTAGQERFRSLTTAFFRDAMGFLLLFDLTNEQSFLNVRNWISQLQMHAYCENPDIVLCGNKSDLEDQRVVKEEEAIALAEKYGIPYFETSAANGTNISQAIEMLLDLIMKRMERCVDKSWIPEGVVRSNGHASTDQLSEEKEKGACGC

The target in experiment [6] is T3, Signal recognition particle receptor subunit alpha (Homo sapiens, UniProt P08240).
T3 sequence (P08240 whole entry): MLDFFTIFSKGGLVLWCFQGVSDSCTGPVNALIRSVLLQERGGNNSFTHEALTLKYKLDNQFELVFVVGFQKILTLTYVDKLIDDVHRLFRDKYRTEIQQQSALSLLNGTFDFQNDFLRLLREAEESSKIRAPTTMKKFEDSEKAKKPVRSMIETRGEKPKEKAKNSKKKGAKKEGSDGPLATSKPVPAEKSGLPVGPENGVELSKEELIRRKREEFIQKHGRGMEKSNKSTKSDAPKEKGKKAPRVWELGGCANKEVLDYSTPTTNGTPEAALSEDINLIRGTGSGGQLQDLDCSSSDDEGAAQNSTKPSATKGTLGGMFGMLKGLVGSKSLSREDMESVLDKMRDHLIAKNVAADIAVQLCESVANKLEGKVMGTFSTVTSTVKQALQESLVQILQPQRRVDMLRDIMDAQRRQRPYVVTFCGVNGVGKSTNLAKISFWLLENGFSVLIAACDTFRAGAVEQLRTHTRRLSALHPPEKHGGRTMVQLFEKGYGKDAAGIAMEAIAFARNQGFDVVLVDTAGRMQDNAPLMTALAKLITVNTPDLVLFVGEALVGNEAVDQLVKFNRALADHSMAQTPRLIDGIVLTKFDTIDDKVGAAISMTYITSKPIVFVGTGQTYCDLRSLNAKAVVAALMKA

Experiment [7] has as its target Non-receptor tyrosine-protein kinase TYK2 (Homo sapiens, UniProt P29597).
The target of experiment [8] is T4, Cysteine--tRNA ligase, cytoplasmic (Homo sapiens, UniProt P49589).
T4 sequence (P49589 whole entry): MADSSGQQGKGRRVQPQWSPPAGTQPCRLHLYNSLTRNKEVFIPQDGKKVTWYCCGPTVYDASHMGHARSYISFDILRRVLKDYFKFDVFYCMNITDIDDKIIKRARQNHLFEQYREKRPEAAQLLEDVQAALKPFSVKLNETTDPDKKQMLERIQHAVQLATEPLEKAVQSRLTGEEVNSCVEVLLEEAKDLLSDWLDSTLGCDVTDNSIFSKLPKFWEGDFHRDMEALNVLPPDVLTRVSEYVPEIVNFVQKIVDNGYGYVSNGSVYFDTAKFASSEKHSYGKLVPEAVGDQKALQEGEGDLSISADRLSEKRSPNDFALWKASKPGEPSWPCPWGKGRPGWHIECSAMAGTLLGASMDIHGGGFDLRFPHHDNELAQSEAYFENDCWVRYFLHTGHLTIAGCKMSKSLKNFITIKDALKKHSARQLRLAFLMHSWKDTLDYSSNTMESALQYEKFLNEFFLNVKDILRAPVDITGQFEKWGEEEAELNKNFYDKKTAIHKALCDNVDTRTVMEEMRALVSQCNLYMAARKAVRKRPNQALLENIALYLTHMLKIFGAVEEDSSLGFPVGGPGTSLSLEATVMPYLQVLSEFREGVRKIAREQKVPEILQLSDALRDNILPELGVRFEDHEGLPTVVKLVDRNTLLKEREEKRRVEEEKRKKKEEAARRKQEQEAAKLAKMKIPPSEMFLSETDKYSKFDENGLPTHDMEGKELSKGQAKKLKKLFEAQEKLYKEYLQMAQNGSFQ

Activity calls are given as the source filed them.
Also: in the data inactive means no Kd found up to 30 µM.

Chain of Cyclin-dependent kinase 1 (P06493 whole entry): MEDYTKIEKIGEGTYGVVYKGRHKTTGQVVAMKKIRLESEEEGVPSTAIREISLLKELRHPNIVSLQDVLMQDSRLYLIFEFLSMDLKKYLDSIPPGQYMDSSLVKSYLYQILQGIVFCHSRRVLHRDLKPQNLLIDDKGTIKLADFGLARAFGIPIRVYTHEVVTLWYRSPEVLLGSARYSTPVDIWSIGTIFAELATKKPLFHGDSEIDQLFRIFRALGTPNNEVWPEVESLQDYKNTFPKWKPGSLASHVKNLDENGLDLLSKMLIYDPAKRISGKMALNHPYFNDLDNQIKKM
Chain of Glycogen synthase kinase-3 alpha (P49840 whole entry): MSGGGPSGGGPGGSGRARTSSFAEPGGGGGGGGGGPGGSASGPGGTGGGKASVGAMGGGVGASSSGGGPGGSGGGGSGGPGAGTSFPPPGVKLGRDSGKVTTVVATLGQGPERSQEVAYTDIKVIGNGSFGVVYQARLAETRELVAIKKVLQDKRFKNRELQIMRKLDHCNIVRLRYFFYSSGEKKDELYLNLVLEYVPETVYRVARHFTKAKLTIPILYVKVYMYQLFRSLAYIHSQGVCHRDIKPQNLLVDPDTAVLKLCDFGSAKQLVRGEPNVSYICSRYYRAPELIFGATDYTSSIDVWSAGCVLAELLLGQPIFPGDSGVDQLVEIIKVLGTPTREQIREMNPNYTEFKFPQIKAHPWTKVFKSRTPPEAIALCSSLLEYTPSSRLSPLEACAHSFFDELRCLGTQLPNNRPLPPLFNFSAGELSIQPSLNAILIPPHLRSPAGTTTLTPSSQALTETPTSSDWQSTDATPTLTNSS
Chain of Non-receptor tyrosine-protein kinase TYK2 (P29597 whole entry): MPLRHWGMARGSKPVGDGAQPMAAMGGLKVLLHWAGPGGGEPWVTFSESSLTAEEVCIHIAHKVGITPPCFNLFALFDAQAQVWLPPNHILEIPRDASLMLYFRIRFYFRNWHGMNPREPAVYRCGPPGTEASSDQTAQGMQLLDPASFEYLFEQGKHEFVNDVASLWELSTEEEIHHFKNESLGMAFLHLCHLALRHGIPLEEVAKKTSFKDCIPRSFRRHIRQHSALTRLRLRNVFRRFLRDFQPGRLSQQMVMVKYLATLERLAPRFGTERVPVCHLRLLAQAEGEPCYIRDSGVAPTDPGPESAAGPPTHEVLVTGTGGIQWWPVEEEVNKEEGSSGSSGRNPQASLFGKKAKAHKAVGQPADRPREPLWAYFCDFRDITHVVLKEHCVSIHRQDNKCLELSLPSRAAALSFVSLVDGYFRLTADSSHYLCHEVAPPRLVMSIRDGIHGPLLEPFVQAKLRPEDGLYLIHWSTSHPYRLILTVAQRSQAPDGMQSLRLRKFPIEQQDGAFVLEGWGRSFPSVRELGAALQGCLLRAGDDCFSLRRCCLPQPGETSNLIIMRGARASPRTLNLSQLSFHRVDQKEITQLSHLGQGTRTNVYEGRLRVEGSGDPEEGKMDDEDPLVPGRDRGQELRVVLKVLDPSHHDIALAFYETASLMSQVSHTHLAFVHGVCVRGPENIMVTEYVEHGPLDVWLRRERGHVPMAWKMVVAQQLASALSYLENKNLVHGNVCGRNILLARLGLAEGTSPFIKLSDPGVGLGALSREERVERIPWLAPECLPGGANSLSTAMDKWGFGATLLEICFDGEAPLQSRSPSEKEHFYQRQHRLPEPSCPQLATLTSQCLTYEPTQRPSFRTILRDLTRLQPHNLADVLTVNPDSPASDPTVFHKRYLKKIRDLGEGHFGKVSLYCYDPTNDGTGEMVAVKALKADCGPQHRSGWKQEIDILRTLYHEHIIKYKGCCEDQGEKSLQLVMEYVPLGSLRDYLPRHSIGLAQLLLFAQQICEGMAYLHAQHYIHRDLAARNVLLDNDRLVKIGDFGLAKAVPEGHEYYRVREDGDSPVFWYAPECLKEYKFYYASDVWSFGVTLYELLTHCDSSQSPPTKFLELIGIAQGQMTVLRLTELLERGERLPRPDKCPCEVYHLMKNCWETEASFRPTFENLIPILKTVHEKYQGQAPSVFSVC
Chain of Mitotic checkpoint serine/threonine-protein kinase BUB1 (O43683 whole entry): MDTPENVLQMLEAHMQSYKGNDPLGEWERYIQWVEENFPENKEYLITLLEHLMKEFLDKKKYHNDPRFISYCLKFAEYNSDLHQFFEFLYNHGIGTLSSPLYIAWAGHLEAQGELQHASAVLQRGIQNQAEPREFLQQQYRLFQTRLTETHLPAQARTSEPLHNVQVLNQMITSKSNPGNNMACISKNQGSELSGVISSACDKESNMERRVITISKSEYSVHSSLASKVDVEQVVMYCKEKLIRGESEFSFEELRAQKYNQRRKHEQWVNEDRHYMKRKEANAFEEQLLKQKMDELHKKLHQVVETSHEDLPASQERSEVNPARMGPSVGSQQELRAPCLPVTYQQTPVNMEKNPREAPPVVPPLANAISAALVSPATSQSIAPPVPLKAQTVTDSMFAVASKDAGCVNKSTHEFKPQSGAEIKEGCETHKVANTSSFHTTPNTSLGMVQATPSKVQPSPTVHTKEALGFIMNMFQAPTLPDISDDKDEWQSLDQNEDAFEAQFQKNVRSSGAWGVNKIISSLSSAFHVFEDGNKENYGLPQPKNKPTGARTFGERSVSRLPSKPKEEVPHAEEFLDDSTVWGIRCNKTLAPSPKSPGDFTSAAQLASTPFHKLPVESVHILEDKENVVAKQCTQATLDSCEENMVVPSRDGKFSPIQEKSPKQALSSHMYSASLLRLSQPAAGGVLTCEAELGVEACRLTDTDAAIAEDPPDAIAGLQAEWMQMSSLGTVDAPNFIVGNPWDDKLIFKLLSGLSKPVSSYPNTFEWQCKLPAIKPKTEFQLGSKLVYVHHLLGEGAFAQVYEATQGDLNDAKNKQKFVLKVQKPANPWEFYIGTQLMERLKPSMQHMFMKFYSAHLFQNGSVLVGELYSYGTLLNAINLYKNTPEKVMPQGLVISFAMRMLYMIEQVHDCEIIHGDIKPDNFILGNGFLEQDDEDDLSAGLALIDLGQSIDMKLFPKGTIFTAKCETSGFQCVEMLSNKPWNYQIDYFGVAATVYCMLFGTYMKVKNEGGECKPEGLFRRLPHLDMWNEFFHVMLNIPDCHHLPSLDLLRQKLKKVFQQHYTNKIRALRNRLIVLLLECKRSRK
Chain of Cyclin-dependent kinase 7 (P50613 whole entry): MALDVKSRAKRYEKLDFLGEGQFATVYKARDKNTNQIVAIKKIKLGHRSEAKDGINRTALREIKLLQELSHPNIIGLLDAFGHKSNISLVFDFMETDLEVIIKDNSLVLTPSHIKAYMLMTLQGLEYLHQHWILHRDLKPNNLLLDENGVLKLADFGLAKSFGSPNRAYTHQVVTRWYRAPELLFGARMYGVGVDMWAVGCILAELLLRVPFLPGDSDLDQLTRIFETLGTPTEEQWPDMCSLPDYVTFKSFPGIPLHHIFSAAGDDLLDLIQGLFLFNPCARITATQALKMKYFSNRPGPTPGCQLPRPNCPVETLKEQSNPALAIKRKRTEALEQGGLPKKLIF

With `Cn1cc(-c2ccc(F)c(C(F)(F)F)c2)nc1C1CCN(c2ncnc3[nH]ncc23)CC1` [LY-2584702], the Kd (on Actin-related protein 2; in [1]; in [2]; in experiment [3]; on Ephrin type-B receptor 6; in experiment [4]) was > 30 µM (inactive) each time. The Kd in [5], in experiment [6] and in experiment [7] was > 30 µM (inactive) in each case.
`Cn1ncc(Cl)c1-c1cc(C(=O)N[C@H](CN)Cc2cccc(F)c2)sc1Cl` [AFURESERTIB]: the Kd (at Actin-related protein 2; in experiment [1]; in [2]; in [3]; at Ephrin type-B receptor 6; in experiment [4]) was > 30 µM (inactive) in each case. Further, in experiment [7], the Kd was > 30 µM (inactive).
For the compound `COC(=O)[C@@]1(O)C[C@H]2O[C@]1(C)n1c3ccccc3c3c4c(c5c6ccccc6n2c5c31)C(=O)NC4` [K-252A], the Kd (at Actin-related protein 2; in [1]; in experiment [2]; in experiment [3]; at Ephrin type-B receptor 6; in experiment [4]) was > 30 µM (inactive) throughout. In addition, the Kd in experiment [5] and in experiment [7] was > 30 µM (inactive) in each case.
As to `O=C1NC(=O)/C(=C/c2ccc3nccc(-c4ccncc4)c3c2)S1` [GSK-1059615], the Kd (at Actin-related protein 2; in experiment [1]; in experiment [2]; in [3]; at Ephrin type-B receptor 6; in [4]) was > 30 µM (inactive) in each case. Besides, the Kd in experiment [5], in experiment [6] and in [7] was > 30 µM (inactive) each time.
Turning to `C[C@@H](Nc1cc(F)cc(F)c1)c1cc(C(=O)N(C)C)cc2c(=O)cc(N3CCOCC3)oc12` [AZD-8186], the Kd (at Actin-related protein 2; in experiment [1]; in experiment [2]; in experiment [3]; at Ephrin type-B receptor 6; in experiment [4]) was > 30 µM (inactive) throughout. Besides, the Kd in experiment [5], in experiment [6] and in experiment [7] was > 30 µM (inactive) each time.
On to `Cc1c(F)cc(C(=O)NC2CC2)cc1-c1ccc(C(=O)NCC(C)(C)C)cn1` [LOSMAPIMOD], for which the Kd on Actin-related protein 2 is > 30 µM (inactive); in experiment [1], 1.92 µM; in experiment [2] it was > 30 µM (inactive); in experiment [3] it was > 30 µM (inactive); on Ephrin type-B receptor 6 it was > 30 µM (inactive); in experiment [4], > 30 µM (inactive). Moreover, the Kd in experiment [5], in experiment [6] and in experiment [7] was > 30 µM (inactive) in each case.
Regarding `C=CC(=O)N1CCC(Oc2cc3c(Nc4ccc(Cl)c(Cl)c4F)ncnc3cc2OC)CC1` [POZIOTINIB], the Kd (in experiment [1]; in [2]; in experiment [3]; at Ephrin type-B receptor 6; in experiment [4]; in [5]) was > 30 µM (inactive) each time. The Kd in experiment [6] and in experiment [7] was > 30 µM (inactive) throughout.
Turning to `CN1CCN(c2ccc3nc(-c4c(N)c5c(F)cccc5[nH]c4=O)[nH]c3c2)CC1` [DOVITINIB], the Kd (on Actin-related protein 2; in experiment [1]; in experiment [8]; in experiment [2]; in [5]) was > 30 µM (inactive) in each case.
Take `O=C(Nc1cccc(Cl)c1)Nc1ncc(CCNc2ncnc3ccsc23)s1` [SNS-314]: the Kd (on Actin-related protein 2; in experiment [8]; in experiment [5]) was > 30 µM (inactive) each time.
Take `C1=C/COCc2cc(ccc2OCCN2CCCC2)Nc2nccc(n2)-c2cccc(c2)COC/1` [PACRITINIB]: the Kd in experiment [1] was > 30 µM (inactive); in experiment [2], > 30 µM (inactive); in experiment [3] it was > 30 µM (inactive); at Ephrin type-B receptor 6 it was > 30 µM (inactive); in experiment [4], 5.19 µM (active); in experiment [6] it was > 30 µM (inactive).
`CNC(=O)c1ccc(C)c(-n2c(C)cc(OCc3ccc(F)cc3F)c(Br)c2=O)c1` [PH-797804]: the Kd (at Actin-related protein 2; in experiment [1]; in experiment [2]; in experiment [3]; on Ephrin type-B receptor 6; in [4]) was > 30 µM (inactive) in each case. In addition, in [7], the Kd is > 30 µM (inactive).
Consider `COc1cc(N2CCC(N3CCN(C)CC3)CC2)ccc1Nc1ncnc(Nc2ccccc2S(=O)(=O)C(C)C)n1` [ASP-3026], for which the Kd (in [1]; in [2]; in [3]; at Ephrin type-B receptor 6; in experiment [4]; in [5]) was > 30 µM (inactive) each time. In addition, the Kd in experiment [6] and in experiment [7] was > 30 µM (inactive) in each case.
Turning to `Cn1cc(-c2ccc3nnc(C(F)(F)c4ccc5ncccc5c4)n3n2)cn1` [JNJ-38877605], the Kd (on Actin-related protein 2; in experiment [1]; in [2]; in [3]; on Ephrin type-B receptor 6; in experiment [4]) was > 30 µM (inactive) throughout. In addition, the Kd in experiment [5], in experiment [6] and in [7] was > 30 µM (inactive) in each case.

By Kd is commonly meant a measure of binding affinity in units of concentration.
